Values after ≈ are worked out from the molar mass of the structure shown.
Experiments:
[1] = system: Enterococcus spp.; experiment: minimum inhibitory concentration (MIC)
Procedure: (§1)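 Broth microdilution MIC (Sensititre BOPO7F bovine plate, CLSI methods) of 19 antimicrobials against field isolates of P. multocida, M. haemolytica, H. somni (deep nasopharyngeal swabs) and E. coli, Enterococcus spp. (rectal swabs) from weaned dairy heifers. Incubation 16-24 h at 35 C. MIC is the lowest concentration preventing visible growth. Values with <= or > lie at the tested range limits. Trimethoprim-sulfamethoxazole is given as the trimethoprim component of a 1:19 mixture.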

[2] = system: Pasteurella multocida; experiment: minimum inhibitory concentration (MIC)
Procedure: as §1

CCCNC[C@]1(O)[C@H](C)O[C@@H](O[C@H]2[C@H](C)[C@@H](O[C@@H]3O[C@H](C)C[C@H](N(C)C)[C@H]3O)[C@](C)(O)C[C@@H](C)CN[C@H](C)[C@@H](O)[C@](C)(O)[C@@H](CC)OC(=O)[C@@H]2C)C[C@@]1(C)OC [Tulathromycin]
minimum inhibitory concentration [µg/mL]
Details	[1]	[2]
isolate (source animal id): 2	≤ 8	–
isolate (source animal id): 10	–	≤ 8
isolate (source animal id): 11	–	32 (≈ 39.7 µM)
isolate (source animal id): 12	–	32 (≈ 39.7 µM)
isolate (source animal id): 19	–	32 (≈ 39.7 µM)
isolate (source animal id): 23	–	16 (≈ 19.8 µM)
isolate (source animal id): 26	–	≤ 8
isolate (source animal id): 35	> 64	–
isolate (source animal id): 42	≤ 8	–
isolate (source animal id): 44	≤ 8	–
isolate (source animal id): 79	≤ 8	–
isolate (source animal id): 88	≤ 8	–
isolate (source animal id): 91	≤ 8	–
isolate (source animal id): 92	16 (≈ 19.8 µM)	–
isolate (source animal id): 98	–	≤ 8
isolate (source animal id): 104	–	> 64
isolate (source animal id): 111	≤ 8	–
isolate (source animal id): 115	–	32 (≈ 39.7 µM)
isolate (source animal id): 117	–	≤ 8
isolate (source animal id): 118	–	16 (≈ 19.8 µM)
isolate (source animal id): 121	–	32 (≈ 39.7 µM)
isolate (source animal id): 122	> 64	–
isolate (source animal id): 123	≤ 8	–
isolate (source animal id): 124	–	≤ 8
isolate (source animal id): 125	–	≤ 8
isolate (source animal id): 128	–	32 (≈ 39.7 µM)
isolate (source animal id): 131	–	> 64
isolate (source animal id): 133	≤ 8	–
isolate (source animal id): 135	–	> 64
isolate (source animal id): 136	–	32 (≈ 39.7 µM)
isolate (source animal id): 140	–	16 (≈ 19.8 µM)
isolate (source animal id): 144	–	16 (≈ 19.8 µM)
isolate (source animal id): 146	–	16 (≈ 19.8 µM)
isolate (source animal id): 150	–	64 (≈ 79.4 µM)
isolate (source animal id): 151	–	64 (≈ 79.4 µM)
isolate (source animal id): 153	–	16 (≈ 19.8 µM)
isolate (source animal id): 155	–	≤ 8
isolate (source animal id): 157	–	≤ 8
isolate (source animal id): 158	> 64	–
isolate (source animal id): 160	–	64 (≈ 79.4 µM)
isolate (source animal id): 164	–	64 (≈ 79.4 µM)
isolate (source animal id): 165	–	64 (≈ 79.4 µM)
isolate (source animal id): 167	–	≤ 8
isolate (source animal id): 168	≤ 8	≤ 8
isolate (source animal id): 169	≤ 8	≤ 8
isolate (source animal id): 170	–	≤ 8
isolate (source animal id): 171	≤ 8	≤ 8
isolate (source animal id): 172	–	≤ 8
isolate (source animal id): 173	–	16 (≈ 19.8 µM)
isolate (source animal id): 174	–	≤ 8
isolate (source animal id): 175	> 64	≤ 8
isolate (source animal id): 176	–	≤ 8
isolate (source animal id): 177	≤ 8	≤ 8
isolate (source animal id): 178	–	≤ 8
isolate (source animal id): 179	–	≤ 8
isolate (source animal id): 181	≤ 8	–
isolate (source animal id): 182	≤ 8	≤ 8
isolate (source animal id): 183	≤ 8	–
isolate (source animal id): 187	≤ 8	–
isolate (source animal id): 190	≤ 8	–
isolate (source animal id): 192	–	≤ 8
isolate (source animal id): 193	–	≤ 8
isolate (source animal id): 194	≤ 8	–
isolate (source animal id): 195	≤ 8	≤ 8
isolate (source animal id): 196	–	≤ 8
isolate (source animal id): 197	≤ 8	≤ 8
isolate (source animal id): 198	–	16 (≈ 19.8 µM)
isolate (source animal id): 199	–	≤ 8
isolate (source animal id): 200	–	≤ 8
isolate (source animal id): 201	–	≤ 8
isolate (source animal id): 203	–	≤ 8
isolate (source animal id): 204	–	≤ 8
isolate (source animal id): 205	–	16 (≈ 19.8 µM)
isolate (source animal id): 206	–	≤ 8
isolate (source animal id): 207	–	≤ 8
isolate (source animal id): 208	–	≤ 8
isolate (source animal id): 209	–	≤ 8
isolate (source animal id): 210	–	16 (≈ 19.8 µM)
isolate (source animal id): 211	≤ 8	–
isolate (source animal id): 213	–	≤ 8
isolate (source animal id): 214	16 (≈ 19.8 µM)	–
isolate (source animal id): 216	–	≤ 8
isolate (source animal id): 222	≤ 8	–
isolate (source animal id): 223	≤ 8	16 (≈ 19.8 µM)
isolate (source animal id): 227	–	≤ 8
isolate (source animal id): 228	> 64	–
isolate (source animal id): 229	–	≤ 8
isolate (source animal id): 230	> 64	–
isolate (source animal id): 233	–	≤ 8
isolate (source animal id): 234	–	≤ 8
isolate (source animal id): 235	> 64	–
isolate (source animal id): 236	≤ 8	–
isolate (source animal id): 237	–	16 (≈ 19.8 µM)
isolate (source animal id): 239	≤ 8	–
isolate (source animal id): 241	> 64	16 (≈ 19.8 µM)
isolate (source animal id): 244	≤ 8	–
isolate (source animal id): 245	–	≤ 8
isolate (source animal id): 246	≤ 8	–
isolate (source animal id): 247	> 64	16 (≈ 19.8 µM)
isolate (source animal id): 250	≤ 8	≤ 8
isolate (source animal id): 252	> 64	–
isolate (source animal id): 254	–	32 (≈ 39.7 µM)
isolate (source animal id): 255	–	16 (≈ 19.8 µM)
isolate (source animal id): 258	–	≤ 8
isolate (source animal id): 261	–	≤ 8
isolate (source animal id): 262	–	16 (≈ 19.8 µM)
isolate (source animal id): 268	> 64	–
isolate (source animal id): 269	–	≤ 8
isolate (source animal id): 270	–	≤ 8
isolate (source animal id): 274	–	≤ 8
isolate (source animal id): 275	–	≤ 8
isolate (source animal id): 276	–	16 (≈ 19.8 µM)
isolate (source animal id): 277	–	≤ 8
isolate (source animal id): 278	–	≤ 8
isolate (source animal id): 279	–	≤ 8
isolate (source animal id): 280	–	> 64
isolate (source animal id): 282	≤ 8	–
isolate (source animal id): 284	–	≤ 8
isolate (source animal id): 285	> 64	16 (≈ 19.8 µM)
isolate (source animal id): 287	–	16 (≈ 19.8 µM)
isolate (source animal id): 289	≤ 8	–
isolate (source animal id): 290	≤ 8	≤ 8
isolate (source animal id): 294	–	≤ 8
isolate (source animal id): 295	–	16 (≈ 19.8 µM)
isolate (source animal id): 296	≤ 8	≤ 8
isolate (source animal id): 298	≤ 8	–
isolate (source animal id): 301	≤ 8	–
isolate (source animal id): 307	–	≤ 8
isolate (source animal id): 310	> 64	16 (≈ 19.8 µM)
isolate (source animal id): 311	–	16 (≈ 19.8 µM)
isolate (source animal id): 312	–	≤ 8
isolate (source animal id): 313	–	16 (≈ 19.8 µM)
isolate (source animal id): 315	–	16 (≈ 19.8 µM)
isolate (source animal id): 316	–	16 (≈ 19.8 µM)
isolate (source animal id): 320	≤ 8	–
isolate (source animal id): 331	≤ 8	–
isolate (source animal id): 333	≤ 8	–
isolate (source animal id): 341	> 64	–

Reference: the supplement of paper PMC8612539
